Measured values reported in paper PMC8151276, “An Integrated Approach toward NanoBRET Tracers for Analysis of GPCR Ligand Engagement” (Molecules, 2021).

Target: T1, DRD1 (Homo sapiens, UniProt P21728)
T1 construct: purchased Promega (in-house HiBiT-GPCR construct library, NanoBRET)
Assay: NanoBRET screen HiBiT-DRD1 in HEK293
Format: binding
Protocol: Each tracer candidate was screened across the entire library of HiBiT-GPCR constructs using NanoBRET as the detection modality. As depicted in Figure 4A, the specificity of interactions was evaluated through decrease in BRET due to competitive displacement of a bound tracer by excess parental compound. Each tracer was analyzed for binding to each HiBiT-GPCR fusion in the absence and in the presence of competing parental compound. Briefly, HEK293 cells were transfected with HiBiT-GPCR constructs diluted into promoterless DNA to reduce expression and maximize translocation to the cell surface. Each tracer candidate was then screened at concentrations of 1 μM and 0.1 μM across cells expressing these fusions. Cells were treated for 1.5 h with tracer either alone or in the presence of 20 μM competing parental compound (i.e., control). BRET was measured upon addition of purified LgBiT and subsequent complementation with HiBiT genetically fused to a GPCR. The specificity of interactions was assessed through a decrease in BRET signal due to competitive displacement of the bound tracer. To further gauge the robustness of these interactions, the fold response over the control (i.e., BRETtracer/BRETcontrol) was calculated. We chose a 1.5-fold response, which translates to ≥7-fold signal over noise as the minimal threshold required to score an interaction as positive.
HiBiT-GPCR DNA constructs were diluted in 10 mM Tris pH 8 to a final concentration of 0.01 μg/μL, arrayed in 96-well plates and stored at −20 °C. For transfection, HEK293 cells were suspended in Opti-MEM (without phenol red) supplemented with 2% fetal bovine serum (Seradigm) and 100 units/mL penicillin–streptomycin (Gibco) at a final concentration of 220,000 cells/mL and dispensed into white 96-well plates at 90 μL/well. Subsequent transfections and screens were carried using an Agilent Bravo Automated Liquid Handling Platform. First, the 96-well HiBiT DNA arrays were diluted 25-fold in Opti-MEM (without serum or phenol red) to a final concentration of 0.0004 μg/μL and 20 μL of the diluted DNAs were transferred into new 96-well plates. Next, promoterless carrier DNA (1 μg/μL) was diluted 25-fold (0.04 μg/μL) and then dispensed into the diluted arrays at 20 μL/well. Following brief mixing, Viafect transfection reagent (Promega) diluted 16-fold into Opti-MEM was dispensed into the plates at 40 μL/well. After mixing by pipetting, plates were incubated for 10 min on the pipetting station deck. The DNA-transfection reagent complexes were then added to plates containing cells. To facilitate the screen, 10 μL of DNA-transfection reagent complexes were added in duplicates to the top 4 and bottom 4 rows, resulting in two identical 48-well arrays per plate. Plates with transfected cells were incubated for 18–20 h at 37 °C/5% CO2. A screen of each tracer across the entire library using two different concentrations requires duplicate plates of transfected cells. Depending on the number of tracers being screened, transfections can be scaled up using the same ratios. The next day, for each tracer, four 20× screening solutions in tracer dilution buffer (Promega) were prepared: two duplicates at final concentration of 20 μM and two duplicates at a final concentration of 2 μM. […] The four resulting solutions were diluted 4-fold in Opti-MEM without serum or phenol red to generate 5× solutions (5 µM and 0.5 µM tracer +/− 100 μM competing compound). To screen the library, a BioTek MultiFlo FX liquid dispenser was used to dispense 22.5 µL of tracer solution to the top 4 rows and 22.5 µL tracer + competing compound solution to the 4 bottom rows. Plates were briefly mixed on an orbital shaker and incubated for 1.5 h at room temperature. […] Plates were briefly mixed on an orbital shaker and incubated for 15 min to allow complementation.

T1 sequence (P21728 whole entry): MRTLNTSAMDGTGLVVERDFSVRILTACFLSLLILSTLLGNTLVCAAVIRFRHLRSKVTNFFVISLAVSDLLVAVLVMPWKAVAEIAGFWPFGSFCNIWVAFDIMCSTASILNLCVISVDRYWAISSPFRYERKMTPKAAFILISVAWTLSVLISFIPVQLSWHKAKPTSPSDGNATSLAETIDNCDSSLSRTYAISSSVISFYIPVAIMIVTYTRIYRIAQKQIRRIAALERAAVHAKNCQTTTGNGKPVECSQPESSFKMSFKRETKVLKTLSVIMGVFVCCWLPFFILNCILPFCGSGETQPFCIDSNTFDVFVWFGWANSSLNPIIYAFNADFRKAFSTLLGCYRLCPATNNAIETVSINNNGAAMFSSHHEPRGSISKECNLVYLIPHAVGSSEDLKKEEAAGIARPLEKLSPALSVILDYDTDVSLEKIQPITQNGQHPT

COc1ccc2c(n1)c(CCNC(C)=O)cn2CCNC(=O)CCc1ccc2n1[B-](F)(F)[N+]1=C(c3ccc[nH]3)C=CC1=C2 [Azamelatonin-1-NB590]
NanoBRET Fold Response (0.1μM tracer): 0.92
NanoBRET Fold Response (1μM tracer): 0.96

CC(C)N(CC[C@H](c1ccccc1)c1cc(CCNC(=O)c2ccc(CNC(=O)CCc3ccc4n3[B-](F)(F)[N+]3=C(c5ccc[nH]5)C=CC3=C4)cc2)ccc1O)C(C)C [Tolterodine-BZ-NB590]
NanoBRET Fold Response (DRD1, tracer 0.1μM): 1.28
NanoBRET Fold Response (DRD1, tracer 1μM): 1.39

O=C(CCc1ccc2n1[B-](F)(F)[N+]1=C(c3ccc[nH]3)C=CC1=C2)NCCOCCOCCNC(=O)OCCOCCN1CCN(C2=Nc3ccccc3Sc3ccccc32)CC1 [Quetiapine-a-2-NB590]
NanoBRET Fold Response (DRD1, tracer 0.1μM): 1.65
NanoBRET Fold Response (DRD1, tracer 1μM): 1.97

Cc1cc2c(s1)Nc1ccccc1N=C2N1CCN(CCCNC(=O)CCOCCOCCOCCOCCNC(=O)CCc2ccc3n2[B-](F)(F)[N+]2=C(c4ccc[nH]4)C=CC2=C3)CC1 [Olanzapine-a-2-NB590]
NanoBRET Fold Response (DRD1, tracer 0.1μM): 2.04
NanoBRET Fold Response (DRD1, tracer 1μM): 3.08

O=C(CCc1ccc2n1[B-](F)(F)[N+]1=C(c3ccc[nH]3)C=CC1=C2)NCc1ccc(C(=O)NCCOCCOCCNCC(O)COc2cccc3ccccc23)cc1 (stereo not drawn) [Propranolol-3-NB590]
NanoBRET Fold Response (DRD1, 0.1μM): 1.01
NanoBRET Fold Response (DRD1, 1μM): 0.98

N#CN/C(=N\CCNC(=O)c1ccc(N)cc1)NCCCOc1cccc(CN2CCCCC2)c1 [Aminopotentidine (unmodified)]
NanoBRET Fold Response (DRD1, other tracers/Aminopotentidine (unmodified), 0.1μM): 1.10
NanoBRET Fold Response (DRD1, other tracers/Aminopotentidine (unmodified), 1μM): 1.11

O=C(CCc1ccc2n1[B-](F)(F)[N+]1=C(c3ccc[nH]3)C=CC1=C2)NCc1ccc(C(=O)NCCOCCC(=O)N[C@@H]2CC[C@@]3(O)[C@H]4Cc5ccc(O)c6c5[C@@]3(CCN4CC3CC3)[C@H]2O6)cc1 [Naltrexone-3-NB590]
NanoBRET Fold Response (DRD1, tracer 0.1μM): 0.98
NanoBRET Fold Response (DRD1, tracer 1μM): 1.03

CC(C)N(CC[C@H](c1ccccc1)c1cc(CCNC(=O)CCOCCOCCOCCOCCNC(=O)CCc2ccc3n2[B-](F)(F)[N+]2=C(c4ccc[nH]4)C=CC2=C3)ccc1O)C(C)C [Tolterodine-2-NB590]
NanoBRET Fold Response (DRD1, tracer 0.1μM): 0.94
NanoBRET Fold Response (DRD1, tracer 1μM): 1.01

Cc1nc2n(c(=O)c1CCN1CCC(c3noc4cc(F)ccc34)CC1)CCCC2OC(=O)NCCOCCOCCOCCOCCNC(=O)CCc1ccc2n1[B-](F)(F)[N+]1=C(c3ccc[nH]3)C=CC1=C2 (stereo not drawn) [Risperidone-2-NB590]
NanoBRET Fold Response (DRD1, tracer 0.1μM): 2.20
NanoBRET Fold Response (DRD1, tracer 1μM): 2.38

O=C(CCOCCOCCOCCOCCNC(=O)CCc1ccc2n1[B-](F)(F)[N+]1=C(c3ccc[nH]3)C=CC1=C2)NCCCN1CCN(C2=Nc3cc(Cl)ccc3Nc3ccccc32)CC1 [Clozapine-a-2-NB590]
NanoBRET Fold Response (DRD1, 0.1μM tracer): 3.20
NanoBRET Fold Response (DRD1, 1μM tracer): 3.32

COc1ccc2[nH]c(-c3ccc(CNC(=O)CCOCCOCCOCCOCCNC(=O)CCc4ccc5n4[B-](F)(F)[N+]4=C(c6ccc[nH]6)C=CC4=C5)cc3)c(CCNC(C)=O)c2n1 [AzomelatoninICO9-2-NB590]
NanoBRET Fold Response (0.1μM tracer): 0.98
NanoBRET Fold Response (1μM tracer): 0.94

COc1ccccc1N1CCN(CCCCN2C(=O)c3ccc(CNC(=O)CCOCCNC(=O)c4ccc(CNC(=O)CCc5ccc6n5[B-](F)(F)[N+]5=C(c7ccc[nH]7)C=CC5=C6)cc4)cc3C2=O)CC1 [NAN-190-3-NB590]
NanoBRET Fold Response (DRD1, tracer 0.1μM): 1.75
NanoBRET Fold Response (DRD1, tracer 1μM): 1.32

N#CN=C(NCCCOc1cccc(CN2CCCCC2)c1)NCCNC(=O)CCOCCOCCOCCOCCNC(=O)CCc1ccc2n1[B-](F)(F)[N+]1=C(c3ccc[nH]3)C=CC1=C2 [Aminopotentidine-2-NB590]
NanoBRET Fold Response (DRD1, tracer 0.1μM): 1.04
NanoBRET Fold Response (DRD1, tracer 1μM): 1.06

CN(C)CCC=C1c2ccccc2CCc2ccc(C(=O)NCCNC(=O)CCOCCOCCOCCOCCNC(=O)CCc3ccc4n3[B-](F)(F)[N+]3=C(c5ccc[nH]5)C=CC3=C4)cc21 [Amitriptyline-b-2-NB590]
NanoBRET Fold Response (tracer at 0.1μM, listed as amitriptyline-b-2-NB590): 1.39
NanoBRET Fold Response (tracer at 1μM, listed as amitriptyline-b-2-NB590): 1.97

COc1ccccc1N1CCN(CCCCN2C(=O)c3ccc(CNC(=O)CCOCCOCCOCCOCCNC(=O)CCc4ccc5n4[B-](F)(F)[N+]4=C(c6ccc[nH]6)C=CC4=C5)cc3C2=O)CC1 [NAN-190-2-NB590]
NanoBRET Fold Response (DRD1, tracer 0.1μM): 1.23
NanoBRET Fold Response (DRD1, tracer 1μM): 1.53

O=C(CCOCCOCCOCCOCCNC(=O)CCc1ccc2n1[B-](F)(F)[N+]1=C(c3ccc[nH]3)C=CC1=C2)NCCCN1CCN(C2=Nc3ccccc3Oc3ccc(Cl)cc32)CC1 [Loxapine-a-2-NB590]
NanoBRET Fold Response (DRD1, tracer 0.1μM): 1.65
NanoBRET Fold Response (DRD1, tracer 1μM): 2.64

CN(CCC=C1c2ccccc2CCc2ccccc21)C(=O)CCOCCOCCOCCOCCNC(=O)CCc1ccc2n1[B-](F)(F)[N+]1=C(c3ccc[nH]3)C=CC1=C2 [Amitriptyline-e-2-NB590]
NanoBRET Fold Response (tracer at 1μM): 1.12

CCCn1c(=O)c2[nH]c(-c3ccc(OCC(=O)NCCNC(=O)CCOCCNC(=O)c4ccc(CNC(=O)CCc5ccc6n5[B-](F)(F)[N+]5=C(c7ccc[nH]7)C=CC5=C6)cc4)cc3)nc2n(CCC)c1=O [XAC-3-NB590]
NanoBRET Fold Response (DRD1, tracer 0.1μM): 0.90
NanoBRET Fold Response (DRD1, tracer 1μM): 1.11

CN(C)CCC=C1c2ccccc2CCc2ccc(C(=O)NCCNC(=O)CCOCCOCCOCCOCCNC(=O)CCc3ccc4n3[B-](F)(F)[N+]3=C(c5ccc[nH]5)C=CC3=C4)cc21 [Amitriptyline-a-2-NB590]
NanoBRET Fold Response (tracer at 0.1μM): 1.04
NanoBRET Fold Response (tracer at 1μM): 1.23

CCOC(=O)c1cc(C#N)c(N2CCC(C(=O)NS(=O)(=O)Cc3ccccc3/C=C/C(=O)NCCNC(=O)CCc3ccc4n3[B-](F)(F)[N+]3=C(c5ccc[nH]5)C=CC3=C4)CC2)nc1C [AZD1283-1-NB590]
NanoBRET Fold Response (DRD1, 0.1μM): 1.07
NanoBRET Fold Response (DRD1, 1μM): 1.10
